Results: US20020133846A1, “Method for protecting plants” (priority 1996, published 2002)
Read-outs that look alike come from different tables or passages of the source.

What was measured:
[1] = tested on: Peronospora parasitica isolate Emwa; assay: Action against Peronospora parasitica in Arabidopsis overexpressing NIM1 (lines 6E, 7C) and wild-type Ws; format: in vivo
Source text: The plant lines used in this example (6E and 7C) were generated from transformation of wild-type Arabidopsis thaliana plants (ecotype Ws) with the BamHI-HindIII NIM1 genomic fragment (SEQ ID NO:1—bases 1249-5655), as described above in Example 21. The fungicides metalaxyl, fosetyl, and copper hydroxide, formulated as 25%, 80%, and 70% active ingredient (ai), respectively, with a wettable powder carrier, were applied as fine mist to leaves of three week-old transgenic Ws plants constitutively expressing the NIM1 gene. The wettable powder alone was applied as a control. Three days later, plants were inoculated with a Peronospora parasitica isolate Emwa conidial suspension (1-2×10^5 spores/ml), as described in Delaney et al. (1995). Following inoculation, plants were covered to maintain high humidity and were placed in a Percival growth chamber at 17° C. with a 14-hr day/10-hr night cycle (Uknes et al., 1993). Tissue was harvested 8 days after inoculation.
Fungal infection progression was followed for 12 days by viewing under a dissecting microscope to score development of conidiophores (Delaney, et al. (1994); Dietrich, et al. (1994)). Lactophenoltrypan blue staining of individual leaves was carried out to observe fungal growth within leaf tissue. Fungal growth was quantified using a rRNA fungal probe obtained by PCR according to White et al. (1990; PCR Protocols: A guide to Methods and Application, 315-322) using primers NS1 and NS2 and P. parasitica EmWa DNA as templates. RNA was purified from frozen tissue by phenol/chloroform extraction following lithium chloride precipitation (Lagrimini et al, 1987: PNAS, 84: 7542-7546). Samples (7.5 μg) were separated by electrophoresis through formaldehyde agarose gels and blotted to nylon membranes (Hybond-N+, Amersham) as described by Ausbel et al. (1987). Hybridizations and washing were according to Church and Gilbert (1984, PNAS, 81: 1991-1995). Relative amounts of the transcript were determined using a Phosphor Imager (Molecular Dynamics, Sunnyvale, Calif.) following manufacturers instructions. Sample loading was normalized by probing stripped filter blots with the constitutively expressed b-tubulin Arabidopsis cDNA.

[2] = tested on: Peronospora parasitica NoCo2; assay: whole plant or invertebrate; format: in vivo
[3] = Cu(OH)2 0.02 g/l, NIM1 overexpression line 6E
[4] = Cu(OH)2 0.02 g/l, NIM1 overexpression line 7C
[5] = Cu(OH)2 0.2 g/l, NIM1 overexpression line 6E
[6] = Cu(OH)2 0.2 g/l, NIM1 overexpression line 7C
[7] = Cu(OH)2 2.0 g/l, NIM1 overexpression line 6E
[8] = Cu(OH)2 2.0 g/l, NIM1 overexpression line 7C

## CCO[PH](=O)O [fosetyl, ethyl hydrogen phosphonate]
[1]; Hyaloperonospora parasitica, in Arabidopsis thaliana, Table 37, NIM1 overexpression line 6E, fosetyl 0.05 g/l, read-out: Fungal Growth Inhibition % O (observed)
  inhibition at 50 µg/mL: 42%
[1]; Hyaloperonospora parasitica, in Arabidopsis thaliana, Table 37, NIM1 overexpression line 6E, fosetyl 0.5 g/l, read-out: Fungal Growth Inhibition % O (observed)
  inhibition at 500 µg/mL: 83%
[1]; Hyaloperonospora parasitica, in Arabidopsis thaliana, fosetyl 0.5 g/l, NIM1 overexpression line 7C, read-out: Fungal Growth Inhibition % O (observed)
  inhibition at 500 µg/mL: 56%
[1]; Hyaloperonospora parasitica, in Arabidopsis thaliana, read-out: Fungal Growth Inhibition % O (observed), Table 37, NIM1 overexpression line 6E, fosetyl 5.0 g/l
  inhibition at 5000 µg/mL: 93%
[1]; Hyaloperonospora parasitica, in Arabidopsis thaliana, read-out: Fungal Growth Inhibition % O (observed), fosetyl 5.0 g/l, NIM1 overexpression line 7C
  inhibition at 5000 µg/mL: 80%
[1]; Table 37, NIM1 overexpression line 6E + fosetyl 0.05 g/l
  Synergy Factor O/E: 4.2
[1]; Table 37, NIM1 overexpression line 6E + fosetyl 0.5 g/l
  Synergy Factor O/E: 6.9
[1]; Table 37, NIM1 overexpression line 6E + fosetyl 5.0 g/l
  Synergy Factor O/E: 5.5
[1]; fosetyl 0.5 g/l, NIM1 overexpression line 7C
  Synergy Factor O/E: 3.5
[1]; fosetyl 5.0 g/l, NIM1 overexpression line 7C
  Synergy Factor O/E: 3.8

## CSC(=O)c1cccc2nnsc12 [BTH]
[2]; Hyaloperonospora parasitica, in Arabidopsis thaliana, read-out: Fungal Growth Inhibition % O (observed), Table 34, cim3 mutant, BTH 0.01 mM
  inhibition at 10 µM: 16.6%
[2]; Hyaloperonospora parasitica, in Arabidopsis thaliana, read-out: Fungal Growth Inhibition % O (observed), Table 34, cim3 mutant, BTH 0.03 mM
  inhibition at 30 µM: 73.1%
[2]; Table 34, cim3 mutation + BTH 0.01 mM
  Synergy Factor O/E: 1.3
[2]; Table 34, cim3 mutation + BTH 0.03 mM
  Synergy Factor O/E: 2.2

## COCC(=O)N(c1c(C)cccc1C)C(C)C(=O)OC (racemic) [metalaxyl]
[2]; Hyaloperonospora parasitica, in Arabidopsis thaliana, read-out: Fungal Growth Inhibition % O (observed), Table 33, cim3 mutant, metalaxyl 0.02 mg/l
  inhibition at 0.02 µg/mL: 55.6%
[2]; Hyaloperonospora parasitica, in Arabidopsis thaliana, read-out: Fungal Growth Inhibition % O (observed), Table 33, cim3 mutant, metalaxyl 0.1 mg/l
  inhibition at 0.1 µg/mL: 57.8%
[2]; Hyaloperonospora parasitica, in Arabidopsis thaliana, read-out: Fungal Growth Inhibition % O (observed), Table 33, cim3 mutant, metalaxyl 2.5 mg/l
  inhibition at 2.5 µg/mL: 82.2%
[2]; Table 33, cim3 mutation + metalaxyl 0.1 mg/l
  Synergy Factor O/E: 4.6
[2]; Table 33, cim3 mutation + metalaxyl 2.5 mg/l
  Synergy Factor O/E: 6.6
[1]; Hyaloperonospora parasitica, in Arabidopsis thaliana, Table 36, NIM1 overexpression line 6E, metalaxyl 0.0012 g/l, read-out: Fungal Growth Inhibition % O (observed)
  inhibition at 1.2 µg/mL: 56%
[1]; Hyaloperonospora parasitica, in Arabidopsis thaliana, Table 36, NIM1 overexpression line 6E, metalaxyl 0.0125 g/l, read-out: Fungal Growth Inhibition % O (observed)
  inhibition at 12.5 µg/mL: 76%
[1]; Table 36, NIM1 overexpression line 6E + metalaxyl 0.0012 g/l
  Synergy Factor O/E: 1.5
[1]; Table 36, NIM1 overexpression line 6E + metalaxyl 0.0125 g/l
  Synergy Factor O/E: 1.1

## [Cu+2].[OH-].[OH-] [Cu(OH)2, copper hydroxide]
[1]; [3]
  Fungal Growth Inhibition % O (observed): 20%
  Synergy Factor O/E: 2.0
[1]; [4]
  Fungal Growth Inhibition % O (observed): 55%
  Synergy Factor O/E: 3.9
[1]; [5]
  Fungal Growth Inhibition % O (observed): 14%
  Synergy Factor O/E: 1.4
[1]; [6]
  Fungal Growth Inhibition % O (observed): 51%
  Synergy Factor O/E: 3.6
[1]; [7]
  Fungal Growth Inhibition % O (observed): 66%
  Synergy Factor O/E: 6.6
[1]; [8]
  Fungal Growth Inhibition % O (observed): 77%
  Synergy Factor O/E: 5.5
[1]; NIM1 overexpression line 7C + copper hydroxide 2.0 g/l
  synergy factor: 5.5
[1]; NIM1 overexpression line 7C, copper hydroxide 2.0 g/l
  fungal growth inhibition (observed): 77%
